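Each compound was tested at five concentrations against cells in 96-well plates for 48 hours. The concentration for full growth arrest is given as TGI.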
How the values were obtained:
Test in all cases: NCI anticancer screen, dose series, 48 h
[1] = system: SW-620 colon
[2] = system: T-47D breast
[3] = system: HCT-116 colon
[4] = system: NCI/ADR-RES ovarian
[5] = system: OVCAR-8 ovarian
[6] = system: MDA-N
[7] = system: 786-0 renal
[8] = system: EKVX NSCLC
[9] = system: DU-145 prostate
[10] = system: RPMI-8226 leukemia
[11] = system: OVCAR-3 ovarian
[12] = system: UACC-62 melanoma
[13] = system: HT29 colon
[14] = system: TK-10 renal
[15] = system: K-562 leukemia
[16] = system: COLO 205 colon
[17] = system: HCC-2998 colon
[18] = system: U251 CNS
[19] = system: LOX IMVI melanoma
[20] = system: A498 renal
[21] = system: HCT-15 colon
[22] = system: HS 578T breast
[23] = system: HOP-62 NSCLC
[24] = system: SF-268 CNS
[25] = system: MDA-MB-231 breast
[26] = system: UACC-257 melanoma
[27] = system: NCI-H23 lung
[28] = system: MCF7 breast
[29] = system: BT-549 breast
[30] = system: PC-3 prostate
[31] = system: MDA-MB-435
[32] = system: SNB-75 CNS
[33] = system: SK-MEL-5 melanoma
[34] = system: SK-OV-3 ovarian
[35] = system: IGROV1 ovarian
[36] = system: OVCAR-4 ovarian
[37] = system: SN12C renal
[38] = system: NCI-H460 lung
[39] = system: KM12 colon
[40] = system: NCI-H226 lung
[41] = system: ACHN renal
[42] = system: SF-539 CNS
[43] = system: SK-MEL-28 melanoma
[44] = system: CCRF-CEM leukemia
[45] = system: UO-31 renal
[46] = system: SK-MEL-2 melanoma
[47] = system: SR leukemia
[48] = system: HOP-92 NSCLC
[49] = system: SNB-19 CNS
[50] = system: MOLT-4 leukemia
[51] = system: CAKI-1 renal
[52] = system: MALME-3M melanoma
[53] = system: A549 NSCLC
[54] = system: OVCAR-5 ovarian
[55] = system: M14 melanoma
[56] = system: RXF 393 renal
[57] = system: SF-295 CNS
[58] = system: NCI-H522 lung

SMILES: C/C(=N\NC(=S)Nc1ccc(C)cc1)c1nc2ncccc2[nH]1
- TGI [1]: 24 µM
- TGI [2]: 18 µM
- TGI [3]: 14.3 µM
- TGI [4]: > 100 µM
- TGI [5]: 12.3 µM
- TGI [6]: 23.8 µM
- TGI [7]: 18.7 µM
- TGI [8]: 7.27 µM
- TGI [9]: 13.6 µM
- TGI [10]: > 100 µM
- TGI [11]: 9.71 µM
- TGI [12]: 15 µM
- TGI [13]: 14.5 µM
- TGI [14]: 37 µM
- TGI [15]: 24.2 µM
- TGI [16]: 17.6 µM
- TGI [17]: 20.2 µM
- TGI [18]: 15.4 µM
- TGI [19]: 8.29 µM
- TGI [20]: 23.4 µM
- TGI [21]: 19.4 µM
- TGI [22]: 58.9 µM
- TGI [23]: 39.2 µM
- TGI [24]: 35.7 µM
- TGI [25]: > 100 µM
- TGI [26]: 9.48 µM
- TGI [27]: 19.8 µM
- TGI [28]: 13.5 µM
- TGI [29]: 11.8 µM
- TGI [30]: 32.5 µM
- TGI [31]: 13.3 µM
- TGI [32]: 22.5 µM
- TGI [33]: 4.73 µM
- TGI [34]: 58.3 µM
- TGI [35]: 17.3 µM
- TGI [36]: 16.7 µM
- TGI [37]: 30.8 µM
- TGI [38]: 13.6 µM
- TGI [39]: 32 µM
- TGI [40]: 8.01 µM
- TGI [41]: 14.3 µM
- TGI [42]: 5.71 µM
- TGI [43]: 18.4 µM
- TGI [44]: 11.5 µM
- TGI [45]: 4.05 µM
- TGI [46]: 25.4 µM
- TGI [47]: > 100 µM
- TGI [48]: 24.1 µM
- TGI [49]: > 100 µM
- TGI [50]: 17.6 µM
- TGI [51]: > 100 µM
- TGI [52]: 37.5 µM
- TGI [53]: 44.7 µM
- TGI [54]: 18.6 µM

SMILES: O=C(Cc1ccccc1)NCCCN(CCCCN(CCCNC(=O)Cc1ccccc1)C(=O)OCc1ccccc1)C(=O)OCc1ccccc1
- TGI [1]: > 100 µM
- TGI [2]: > 100 µM
- TGI [3]: > 100 µM
- TGI [4]: > 100 µM
- TGI [5]: > 100 µM
- TGI [6]: > 100 µM
- TGI [7]: > 100 µM
- TGI [8]: > 100 µM
- TGI [9]: > 100 µM
- TGI [10]: > 100 µM
- TGI [11]: > 100 µM
- TGI [12]: > 100 µM
- TGI [13]: > 100 µM
- TGI [14]: > 100 µM
- TGI [15]: > 100 µM
- TGI [16]: > 100 µM
- TGI [55]: > 100 µM
- TGI [17]: > 100 µM
- TGI [18]: > 100 µM
- TGI [19]: > 100 µM
- TGI [20]: > 100 µM
- TGI [21]: > 100 µM
- TGI [22]: > 100 µM
- TGI [56]: > 100 µM
- TGI [23]: > 100 µM
- TGI [24]: > 100 µM
- TGI [25]: > 100 µM
- TGI [26]: > 100 µM
- TGI [27]: > 100 µM
- TGI [28]: > 100 µM
- TGI [29]: > 100 µM
- TGI [30]: > 100 µM
- TGI [31]: > 100 µM
- TGI [33]: > 100 µM
- TGI [34]: > 100 µM
- TGI [35]: > 100 µM
- TGI [36]: > 28.6 µM
- TGI [37]: > 100 µM
- TGI [38]: > 100 µM
- TGI [39]: > 100 µM
- TGI [57]: > 100 µM
- TGI [40]: > 100 µM
- TGI [41]: > 100 µM
- TGI [42]: > 100 µM
- TGI [43]: > 100 µM
- TGI [44]: > 29.5 µM
- TGI [45]: 6.42 µM
- TGI [46]: > 100 µM
- TGI [47]: > 100 µM
- TGI [48]: > 100 µM
- TGI [58]: 12.2 µM
- TGI [50]: > 100 µM
- TGI [53]: > 100 µM
- TGI [54]: > 100 µM
